The source of these data is patent publication US8834919B2, “Lipid emulsions in the treatment of systemic poisoning” (priority 1998, dated 2014).

One data set concerns Male Sprague-Dawley rats. Nature of the data set: Pretreatment with lipid emulsion: dose-response to bupivacaine induced asystole in rats (protocol 1). In kind it is in vivo, rat. The text has this:
Studies were undertaken to assess the ability of a lipid emulsion to shift the dose-response to drug-induced asystole (heart stoppage) in rats. Pretreatment with a lipid emulsion increased the dose of bupivacaine (a local anesthetic) required to induce asystole. Racemic bupivacaine hydrochloride was purchased from Sigma (St. Louis, Mo.) while tritiated bupivacaine was purchased from Moravek Biochemicals (Brea, Calif.). Intralipid® was purchased from Baxter Healthcare (Deerfield, Ill.). Male Sprague-Dawley rats weighing between about 250 grams to about 370 grams were used in all experiments.
Animals were first anesthetized in a bell jar with isoflurane to allow intubation, then mechanically ventilated with about 1.75% isoflurane in about 100% oxygen using a Harvard rodent ventilatory model 680 in conjunction with a tidal volume of 3 ml and a starting rate of about 40 breaths per minute. […] Electrocardiogram (BCG) was monitored via three subcutaneous needle electrodes in each rat. […]
All animals were allowed to stabilize for about 15 minutes while arterial blood pressure and ECG were monitored. […]
Immediately following pretreatment, all animals received an infusion of about 0.75% bupivacaine via the internal iliac catheter at a rate of 10 mg/kg/min to an end point of about ten seconds of asystole. […] The cumulative lethal dose of bupivacaine was calculated in mg/kg for all animals. […]

Data set [1] is classed as in vivo, rat. The following applies: saline pretreatment (group 1); +/- SEM. On the procedure:
Immediately following pretreatment, all animals received an infusion of about 0.75% bupivacaine via the internal iliac catheter at a rate of 10 mg/kg/min to an end point of about ten seconds of asystole. Blood was then drawn from the aorta into a heparinized syringe for plasma bupivacaine determinations. The cumulative lethal dose of bupivacaine was calculated in mg/kg for all animals.
Plasma bupivacaine concentrations were determined by high performance liquid chromatograph (HPLC) after the samples had been extracted with hexane. The method of hexane extraction was validated with bupivacaine spiked samples and provided greater than about 95% recovery of bupivacaine from both normal and lipemic plasma. Thus, plasma bupivacaine concentrations reflected total bupivacaine content in both the aqueous and lipid phases of the specimen. […] The drugs were detected at a wavelength of about 215 nm.
Bupivacaine dose and plasma concentrations were analyzed by Kruskal-Wallis one way analysis of variance on ranks. […] Plasma bupivacaine concentration data were parametric and differences in mean values were evaluated. […] The difference in survival of the two groups at 15 mg/kg bupivacaine was further evaluated using a z test of proportions. […]

A short description of data set [2]: Bupivacaine lipid:aqueous partition in a mixture of Intralipid and rat plasma. In kind it is physicochemical. On the procedure: The bupivacaine lipid:aqueous partition coefficient was determined for a mixture of Intralipid® and rat plasma. Blood obtained from rats by direct heart puncture under halothane anesthesia was centrifuged and the plasma was separated. Equal volumes of about 30% Intralipid® and plasma (approximately 2 ml each) were combined and vortexed. Approximately 1.0 μCi of titriated bupivacaine (specific activity 0.81 Ci/mole) was added to the mixture to a final bupivacaine concentration of about 93 μg/ml. This mixture was vortexed again then separated into aliquots of about 1 ml. These aliquots were allowed to sit undisturbed for about one hour at about 38° C., then centrifuged at about 10,000 g for about 10 minutes. High speed centrifugation separated each of these mixtures into a clear aqueous phase (about 0.85 ml) under a lipid phase (about 0.15 ml). The latter comprised a clear layer beneath a very thin white cap. The cap was removed then redissolved in saline to a total volume of about 1 ml. Aliquots of this solution and the aqueous plasma phase were then analyzed for tritiated bupivacaine content by liquid scintillation counting. The bupivacaine lipid:aqueous partition coefficient was given by the ratio of bupivacaine in the combined lipid phase (following correction for saline dilution) to the bupivacaine in the aqueous phase. This experiment was performed in triplicate.

The nature of data set [3]: Resuscitation from a toxic bupivacaine dose with lipid emulsion (protocol 2). The settings on record: male, Sprague-Dawley, rat, in vivo, iv, resuscitation with saline infusion after iv bupivacaine bolus; probit analysis. On the procedure:
Bupivacaine dose and plasma concentrations were analyzed by Kruskal-Wallis one way analysis of variance on ranks. Post hoc testing of both data sets was performed by Student-Newman-Keul's method for multiple comparisons (SigmaStat, Jandel Scientific/San Rafael, Calif.). Cumulative bupivacaine dose data were nonparametric and median values were compared by differences of ranks. Plasma bupivacaine concentration data were parametric and differences in mean values were evaluated. Probit analysis (CalcuSyn, Biosoft/Cambridge, England) was used to compare bupivacaine LD50 values in the saline and lipid portions. The difference in survival of the two groups at 15 mg/kg bupivacaine was further evaluated using a z test of proportions. Statistical significance in all experiments was taken as p less than or equal to 0.05.
Experiments were performed to evaluate the ability of a lipid emulsion to resuscitate an animal from a toxic dose of bupivacaine. All animals were anaesthetized, instrumented and stabilized at about 1.75% isoflurane as described in Example 1, and arterial blood pressure and ECG were continuously monitored. […] Survival was scored about 5 minutes after the bupivacaine bolus and required both heart rate greater than about 100 beats per minute and systolic blood pressure greater than about 60 mmHg. […]

The conditions of data set [4]: octanol:water; P = [organic]/[aqueous]; cited from earlier work.
The test system of a further data set is rats. Nature of the data set: Pretreatment with lipid emulsion: cocaine toxicity in rats. The following applies: control (saline), cocaine iv 5 mg/kg/min. The class given is in vivo, rat. On the procedure: Because of the significant potential benefit, experiments were performed to test an infusion of a lipid emulsion as a method of treating cocaine toxicity. Anesthetized, ventilated rats were infused with a lipid emulsion (20% Intralipid® at 10 ml/kg for 2 minutes) and then administered an intravenous infusion of cocaine at 5 mg/kg/min to hypotension (blood pressure is less than 40 mmHg) or asystole (no heartbeat for 5 seconds). […] Thus, pretreatment with a lipid emulsion composition shifts the dose-response of cocaine in much the same way as bupivacaine. This is an expected result given the similar properties and effects between cocaine and bupivacaine. These findings indicate that lipid infusion can be used to treat patients experiencing acute cardiovascular compromise in cocaine overdose.

Turning to `CCCCN1CCCCC1C(=O)Nc1c(C)cccc1C` (racemic) [bupivacaine], the “Median bupivacaine lethal dose” value with Male Sprague-Dawley rats (saline pretreatment (group 1), 0.75% bupivacaine 10 mg/kg/min to asystole, n=6) came out at 17.8 mg/kg. In addition, the “lethal bupivacaine dose, lower end of range among all animals” value with Male Sprague-Dawley rats (single animal receiving saline pretreatment) is on record as “about 12.7 mg/kg”. The “mean plasma bupivacaine concentration at the time of asystole” value in data set [1] was found to be 93.3 ± 7.6 µg/mL. Besides, in data set [2] (equal volumes of about 30% Intralipid and plasma, lipid volume about 15% of total), the “percent of total bupivacaine dissolved in the lipid phase” value is given as “about 75.3%”. The “lipid:aqueous ratio of bupivacaine concentrations” value in data set [2] (equal volumes of about 30% Intralipid and rat plasma, about 38 °C, about 93 μg/ml, +/- standard error, triplicate) was 11.9+/−1.77. In data set [3], this compound displayed an LD50 at 5 min of 12.5 mg/kg. Further, the logP in data set [4] was 3.64.

Take `CC(NC(C)(C)C)C(=O)c1cccc(Cl)c1` (stereo not drawn) [bupropion]: in data set [4], the logP is listed as 3.47. Regarding `COC(=O)[C@H]1[C@@H](OC(=O)c2ccccc2)C[C@@H]2CC[C@H]1N2C` [cocaine], the time to asystole in the data set with rats was determined as 368 ± 27 s. For the same compound, the “mean time to hypotension (40 mmHg)” value with rats (n=8) came out at 143 ± 22 s. On to `COc1ccc([C@@H]2Sc3ccccc3N(CCN(C)C)C(=O)[C@@H]2OC(C)=O)cc1` [diltiazem], for which the logP in data set [4] was 4.53. Regarding `Nc1nnc(-c2cccc(Cl)c2Cl)c(N)n1` [lamotrigine], the logP in data set [4] is −0.19. In the case of `Cc1cccc(C)c1NC(=O)C1CCCCN1C` (stereo not drawn) [mepivacaine], the logP in data set [4] is given as 2.04. As to `CCCN1CCCC[C@H]1C(=O)Nc1c(C)cccc1C` [ropivacaine], the logP in data set [4] is recorded as 3.11.

For the compound `CCCCNc1ccc(C(=O)OCCN(C)C)cc1` [tetracaine], in data set [4], the logP is 3.49.
